Test results as given in paper PMC9292215 (Clinical Pharmacology and Therapeutics, 2021).

Assay: Plasma pharmacokinetics of BIA 10-2474 and metabolites
Assay type: in vivo, human
Details: for AUC / clearance / Cmax / half-life / Tmax / AUC(0-inf) / concentration at 10 day / AUC(0-t): human, plasma, oral; for AUC: AUC0–τ; for clearance: CL; for AUC(0-t): AUC0–t
[1] = 2.5 mg, 2.5 mg once daily, Day 10
[2] = 2.5 mg, 2.5 mg once daily, Day 1
[3] = 10 mg, 10 mg once daily, Day 10
[4] = 20 mg, 20 mg once daily, Day 10

CN(C(=O)n1cnc(-c2ccc[n+]([O-])c2)c1)C1CCCCC1 [BIA 10-2474, 3-(1-(cyclohexyl(methyl)carbamoyl)-1H-imidazol-4-yl)pyridine 1-oxide]
AUC [1]: 526 ng·h/mL
clearance [2]: 98.3 mL/min
clearance [1]: 81.5 mL/min
Cmax [2]: 46 ng/mL
Cmax [1]: 52.6 ng/mL
half-life (2.5 mg, t1/2, 2.5 mg once daily, Day 1): 6.73 h
half-life (2.5 mg, t1/2, 2.5 mg once daily, Day 10): 8.04 h
Tmax [2]: 2 h
Tmax [1]: 2 h
AUC(0-inf) (5 mg): 752 ng·h/mL
concentration at 10 day (5 mg): 10.8 ng/mL
AUC(0-t) (5 mg, 5 mg once daily, Day 1): 695 ng·h/mL
AUC (5 mg, 5 mg once daily, Day 1): 708 ng·h/mL
AUC (5 mg, 5 mg once daily, Day 10): 909 ng·h/mL
clearance (5 mg, 5 mg once daily, Day 1): 125 mL/min
clearance (5 mg, 5 mg once daily, Day 10): 101 mL/min
clearance (5 mg, single dose 5 mg): 114 mL/min
Cmax (5 mg, 5 mg once daily, Day 1): 76.2 ng/mL
Cmax (5 mg, 5 mg once daily, Day 10): 85.7 ng/mL
half-life (5 mg, t1/2, 5 mg once daily, Day 1): 6.4 h
half-life (5 mg, t1/2, 5 mg once daily, Day 10): 7.87 h
half-life (5 mg, t1/2, single dose 5 mg): 6.57 h
Tmax (5 mg, 5 mg once daily, Day 1): 2 h
Tmax (5 mg, 5 mg once daily, Day 10): 2 h
AUC(0-inf) (10 mg): 1610 ng·h/mL
concentration at 10 day (10 mg): 31.9 ng/mL
AUC(0-t) (10 mg, 10 mg once daily, Day 1): 1390 ng·h/mL
AUC(0-t) (10 mg, single dose 10 mg): 1440 ng·h/mL
AUC (10 mg, 10 mg once daily, Day 1): 1390 ng·h/mL
AUC [3]: 2200 ng·h/mL
clearance (10 mg, 10 mg once daily, Day 1): 116 mL/min
clearance [3]: 80.3 mL/min
clearance (10 mg, single dose 10 mg): 112 mL/min
Cmax (10 mg, 10 mg once daily, Day 1): 143 ng/mL
Cmax [3]: 190 ng/mL
Cmax (10 mg, single dose 10 mg): 146 ng/mL
half-life (10 mg, t1/2, 10 mg once daily, Day 1): 7.12 h
half-life (10 mg, t1/2, 10 mg once daily, Day 10): 9.09 h
half-life (10 mg, t1/2, single dose 10 mg): 7.01 h
Tmax (10 mg, 10 mg once daily, Day 1): 2 h
Tmax [3]: 2 h
Tmax (10 mg, single dose 10 mg): 3 h
AUC(0-inf) (20 mg): 4170 ng·h/mL
concentration at 10 day (20 mg): 69.2 ng/mL
AUC(0-t) (20 mg, 20 mg once daily, Day 1): 2980 ng·h/mL
AUC(0-t) (20 mg, single dose 20 mg): 4070 ng·h/mL
AUC (20 mg, 20 mg once daily, Day 1): 2980 ng·h/mL
AUC [4]: 4650 ng·h/mL
clearance (20 mg, 20 mg once daily, Day 1): 100 mL/min
clearance [4]: 72.2 mL/min
clearance (20 mg, single dose 20 mg): 81.2 mL/min
Cmax (20 mg, 20 mg once daily, Day 1): 290 ng/mL
Cmax [4]: 396 ng/mL
Cmax (20 mg, single dose 20 mg): 308 ng/mL
half-life (20 mg, t1/2, 20 mg once daily, Day 1): 7.74 h
half-life (20 mg, t1/2, 20 mg once daily, Day 10): 10.2 h
half-life (20 mg, t1/2, single dose 20 mg): 8.7 h
Tmax (20 mg, 20 mg once daily, Day 1): 1.5 h
Tmax [4]: 2 h
Tmax (20 mg, single dose 20 mg): 2 h
AUC(0-t) (50 mg, 50 mg once daily, Day 1): 7770 ng·h/mL
AUC (50 mg, 50 mg once daily, Day 1): 7770 ng·h/mL
clearance (50 mg, 50 mg once daily, Day 1): 94.7 mL/min
Cmax (50 mg, 50 mg once daily, Day 1): 667 ng/mL
half-life (50 mg, t1/2, 50 mg once daily, Day 1): 8.67 h
Tmax (50 mg, 50 mg once daily, Day 1): 2 h
time to steady state (once-daily administration, visual inspection of Ctrough): 5 to 6 days
V/F (single dose 1.25 mg): 87.8 (30.4) L
V/F (single dose 2.5 mg): 79.0 (29.0) L
V/F (single dose 5 mg): 64.6 (23.0) L
V/F (single dose 10 mg): 66.9 (29.8) L
V/F (single dose 20 mg): 61.3 (19.0) L
V/F (single dose 40 mg): 73.2 (28.3) L
V/F (single dose 100 mg): 57.0 (16.3) L
decrease of exposure in the presence of food (single oral 40 mg): ~ 15%
